# Results as given in publication PMC12582325 (Proceedings of the National Academy of Sciences of the …, 2025).
# Where “and” joins values, the source holds several entries; their conditions need not be identical. Identical values can stand only once. Like-named read-outs stand apart in the source and are kept apart here. Where a SMILES comes first, the peptide text is derived from it.
# Experiments:
# [1] = tested on: F. oxysporum on tomato roots; assay: Tomato root inoculation and fluorescence microscopy of infected roots; assay type: in vivo, Fusarium oxysporum / Solanum lycopersicum; details: exogenous addition of pheromone to microconidia; 3 d after inoculation; fluorescence microscopy
# [2] = tested on: Bc.Ste2; assay type: cell-based, Botrytis cinerea; details: YPL1 library cocultured with Bc.Ste2 strain GEN89, 20 h, 2 d diploid enrichment, NextSeq 500
# [3] = tested on: F. oxysporum germ tubes; details: gradient of 400 μM pheromone against the solvent (50% methanol); 13 h; water-agar; three biological replicates; Fig. 5A
# Protocol: For the B. bassiana and F. oxysporum chemotropism assay and plant infection assays the pheromones were dissolved in 50% (v/v) MeOH to reach a concentration of 4,000 μM.
# Fungal chemotropism was conducted as previously described ([11]). For each compound or combination of compounds tested, 300 hyphal tips were scored. All experiments were performed in three biological replicates.
# [4] = tested on: Fo.Ste2; assay: YeMaP Library-on-One: YPL1 pheromone library enrichment by mating, NGS; assay type: cell-based, Fusarium oxysporum; details: YPL1 library cocultured with Fo.Ste2 strain GEN90, 20 h, 2 d diploid enrichment, NextSeq 500
# [5] = tested on: empty (strain lacking a GPCR); assay type: cell-based, Saccharomyces cerevisiae; details: Fig. 1D mating matrix; pheromone secreted by MATa strain, MATα strain lacking a GPCR (empty); deep well plate, 20 h coculture
# [6] = tested on: Nc Ste2 GPCR; assay type: cell-based, Neurospora crassa
# [7] = tested on: Fg.Ste2; assay type: cell-based, Fusarium graminearum; details: YPL1 library cocultured with Fg.Ste2 strain GEN87, 20 h, 2 d diploid enrichment, NextSeq 500
# [8] = tested on: B. bassiana; assay type: cell-based, Beauveria bassiana
# [9] = tested on: Mo Ste2 GPCR; assay type: cell-based, Magnaporthe oryzae; details: Fig. 1D mating matrix; pheromone secreted by MATa strain, GPCR in MATα strain; deep well plate, 20 h coculture; three technical plating replicates
# [10] = tested on: Hj.Hpr2; assay type: cell-based, Hypocrea jecorina
# [11] = target: T1, Sc Ste2 (Saccharomyces cerevisiae, UniProt D6VTK4); assay type: cell-based
# T1 construct: The native Sc system and an empty construct were added as positive and negative controls; endogenous in cells; host or cells: Saccharomyces cerevisiae wild-type control strains GEN18 (MATa) and GEN27 (MATα)
# T1 sequence (D6VTK4 1-431): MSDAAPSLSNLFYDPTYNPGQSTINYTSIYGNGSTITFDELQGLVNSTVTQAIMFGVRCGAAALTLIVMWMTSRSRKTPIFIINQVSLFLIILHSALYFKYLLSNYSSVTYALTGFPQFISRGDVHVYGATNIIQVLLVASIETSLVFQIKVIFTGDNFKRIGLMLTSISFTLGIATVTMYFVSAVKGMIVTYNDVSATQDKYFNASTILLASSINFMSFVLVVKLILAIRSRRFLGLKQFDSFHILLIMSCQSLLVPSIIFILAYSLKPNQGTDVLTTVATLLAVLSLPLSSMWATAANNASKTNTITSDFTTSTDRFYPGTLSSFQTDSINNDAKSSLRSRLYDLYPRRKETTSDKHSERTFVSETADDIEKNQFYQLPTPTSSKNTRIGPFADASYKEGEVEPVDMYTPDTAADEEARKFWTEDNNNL
# [12] = tested on: Ca.Ste2; assay type: cell-based, Candida albicans
# [13] = tested on: Fo.Ste2; assay type: cell-based, Fusarium oxysporum
# [14] = tested on: no_GPCR (negative control lacking a GPCR); assay type: cell-based, Saccharomyces cerevisiae; details: for barcode qPCR of diploids, no_GPCR x pheromone strain: consortium, individual replicates (n=3), listed as Fo.Pheromone
# [15] = tested on: Fg.Ste2; details: for barcode qPCR of diploids, Fg.Ste2 x pheromone strain: consortium, individual replicates (n=3), listed as Fo.Pheromone
# [16] = tested on: Fo.Ste2; assay type: cell-based, Fusarium oxysporum; remark: listed apart in the source
# [17] = tested on: Bb.Ste2; assay type: cell-based, Beauveria bassiana
# [18] = tested on: Fg.Ste2; assay type: cell-based, Fusarium graminearum; details: for Diploid frequency (%): 20 h coculture; for diploid frequency (%) / average (diploid colonies): GPCR strain GEN37 HIS; for average (diploid colonies): dilution 500, mean of Rep1-3
smiles,measurement,setting,value
C[C@@H](O)[C@H](NC(=O)[C@H](CS)NC(=O)[C@@H](N)Cc1c[nH]c2ccccc12)C(=O)N[C@@H](Cc1c[nH]c2ccccc12)C(=O)N[C@@H](CCCNC(=N)N)C(=O)NCC(=O)N[C@@H](CCC(N)=O)C(=O)N1CCC[C@H]1C(=O)N[C@@H](CS)C(=O)N[C@@H](Cc1c[nH]c2ccccc12)C(=O)O [Fo] (H-WCTWRGQPCW-OH; N-terminus assumed),Adhesion of F. oxysporum germ tubes among themselves or to tomato roots,[1],increased adhesion
same,"Enrichment after mating, reads per million minus library before coculture",[2],"> 340,000 RPM"
same,Chemotropic response in F. oxysporum germ tubes,[3],significant chemotropic response
same,"Enrichment after mating, reads per million minus library before coculture",[4],"> 340,000 RPM"
same,Diploid frequency (%),[5],0.1%
same,Diploid frequency (%),[6],0.0%
same,"Enrichment after mating, reads per million minus library before coculture",[7],"> 340,000 RPM"
same,"Chemotropism of spores, group mean",[8],11.13
same,chem. Index,[8],14.29 and 11.03 and 8.06
same,Chemotropic response in Bb germ tubes,[8]; 20 hours,significant chemotropic response
same,Diploid frequency (%),[9],0.0%
same,"barcode qPCR of diploids, Hj.HPR2 x pheromone strain",[10],0
same,diploid barcode qPCR signal relative to control (2^-dCt),[10],0
same,Diploid frequency (%),[11],0.0%
same,Diploid frequency (%),[12],0.0%
same,"Sup.Fig.7A - Fo, group mean",[13],0.3879 and 0.4515
same,average (diploid colonies),[13],68 and 129.67 and 80.33
same,diploid frequency (%),[13],19.26% and 31.27% and 21.99%
same,"diploid frequency (%), Plates, Fo",[13],1.52% and 3.25% and 5.49%
same,"diploid frequency (%), Plates, Fo",[13]; pH=6,1.9% and 1.65% and 1.4%
same,"diploid frequency (%), Plates, Fo",[13]; pH=7,1.27% and 1.02% and 0.39%
same,"Sup.Fig.7A - Fo, group mean",[13]; ph=6,0.422
same,"Sup.Fig.7A - Fo, group mean",[13]; ph=7,0.4837
same,"barcode qPCR of diploids, no_GPCR x pheromone strain",[14]; SC-AS/Urea,0 and 0.004 and 0.005
same,"barcode qPCR of diploids, no_GPCR x pheromone strain",[14]; SC,0 (2×) and 0.007
same,diploid barcode qPCR signal relative to control (2^-dCt),"[14]; section A4, GPCR strain not given, mean of Bio1-3",0.036
same,diploid barcode qPCR signal relative to control (2^-dCt),"[14]; section A4, column EMPTY, replicate Bio1",0.014
same,diploid barcode qPCR signal relative to control (2^-dCt),"[14]; section A4, column EMPTY, replicate Bio2",0.039
same,diploid barcode qPCR signal relative to control (2^-dCt),"[14]; section A4, column EMPTY, replicate Bio3",0.054
same,diploid barcode qPCR signal relative to control (2^-dCt),"[14]; section Cm, GPCR strain not given, mean of Bio1-3",0.002
same,diploid barcode qPCR signal relative to control (2^-dCt),"[14]; section Cm, column EMPTY, replicate Bio1",0.005
same,diploid barcode qPCR signal relative to control (2^-dCt),"[14]; section Cm, column EMPTY, replicate Bio2",0
same,diploid barcode qPCR signal relative to control (2^-dCt),"[14]; section Cm, column EMPTY, replicate Bio3",0
same,diploid barcode qPCR signal relative to control (2^-dCt),"[14]; section SC, GPCR strain not given, mean of Bio1-3",0.0024
same,diploid barcode qPCR signal relative to control (2^-dCt),"[14]; section SC, column EMPTY, replicate Bio1",0
same,diploid barcode qPCR signal relative to control (2^-dCt),"[14]; section SC, column EMPTY, replicate Bio2",0
same,diploid barcode qPCR signal relative to control (2^-dCt),"[14]; section SC, column EMPTY, replicate Bio3",0.007
same,diploid barcode qPCR signal relative to control (2^-dCt),"[14]; section Scramble, GPCR strain not given, mean of Bio1-3",0.0071
same,diploid barcode qPCR signal relative to control (2^-dCt),"[14]; section Scramble, column EMPTY, replicate Bio1",0
same,diploid barcode qPCR signal relative to control (2^-dCt),"[14]; section Scramble, column EMPTY, replicate Bio2",0.015
same,diploid barcode qPCR signal relative to control (2^-dCt),"[14]; section Scramble, column EMPTY, replicate Bio3",0.006
same,"barcode qPCR of diploids, Fg.Ste2 x pheromone strain",[15]; SC-AS/Urea,0.002 and 0.005 and 0.018
same,"barcode qPCR of diploids, Fg.Ste2 x pheromone strain",[15]; SC,0.005 (2×) and 0.013
same,diploid barcode qPCR signal relative to control (2^-dCt),"[15]; section A4, (GPCR strain) Fg, mean of Bio1-3",0.118
same,diploid barcode qPCR signal relative to control (2^-dCt),"[15]; section A4, column Fg, replicate Bio1",0.012
same,diploid barcode qPCR signal relative to control (2^-dCt),"[15]; section A4, column Fg, replicate Bio2",0.1
same,diploid barcode qPCR signal relative to control (2^-dCt),"[15]; section A4, column Fg, replicate Bio3",0.242
same,diploid barcode qPCR signal relative to control (2^-dCt),"[15]; section Cm, (GPCR strain) Fg, mean of Bio1-3",0.038
same,diploid barcode qPCR signal relative to control (2^-dCt),"[15]; section Cm, column Fg, replicate Bio1",0.014
same,diploid barcode qPCR signal relative to control (2^-dCt),"[15]; section Cm, column Fg, replicate Bio2",0.066
same,diploid barcode qPCR signal relative to control (2^-dCt),"[15]; section Cm, column Fg, replicate Bio3",0.033
same,diploid barcode qPCR signal relative to control (2^-dCt),"[15]; section SC, (GPCR strain) Fg, mean of Bio1-3",0.0075
same,diploid barcode qPCR signal relative to control (2^-dCt),"[15]; section SC, column Fg, replicate Bio1",0.005
same,diploid barcode qPCR signal relative to control (2^-dCt),"[15]; section SC, column Fg, replicate Bio2",0.005
same,diploid barcode qPCR signal relative to control (2^-dCt),"[15]; section SC, column Fg, replicate Bio3",0.013
same,diploid barcode qPCR signal relative to control (2^-dCt),"[15]; section Scramble, (GPCR strain) Fg, mean of Bio1-3",0.0276
same,diploid barcode qPCR signal relative to control (2^-dCt),"[15]; section Scramble, column Fg, replicate Bio1",0.025
same,diploid barcode qPCR signal relative to control (2^-dCt),"[15]; section Scramble, column Fg, replicate Bio2",0.022
same,diploid barcode qPCR signal relative to control (2^-dCt),"[15]; section Scramble, column Fg, replicate Bio3",0.036
same,"barcode qPCR of diploids, Fo.Ste2 x pheromone strain",[16],0.439
same,"Sup.Fig.7B - Fo, group mean",[16]; pH=6,1.65
same,"Sup.Fig.7B - Fo, group mean",[16]; pH=7,0.8933
same,"qPCR, Fo + Fo",[16]; ph=6,0.386 and 0.413 and 0.467
same,"qPCR, Fo + Fo",[16]; ph=7,0.660 and 0.439 and 0.352
same,"Activation of Bb.Ste2 biosensor, in words",[17],higher EC50 values
same,EC50 fold higher than that of the Bb pheromone,[17],"3,910 fold"
same,Fold change yEGFP,[17],178
same,Hillslope,[17],1.951
same,half-maximal effective concentration (EC50),[17],958 nM
same,logEC50,[17],-6.019
same,Diploid frequency (%),"[18]; Fig. 1D mating matrix, pheromone secreted by MATa strain, GPCR in MATα strain, deep well plate, three technical plating replicates",0.5%
same,Diploid frequency (%),"[18]; Fig. 1F validation in culture tubes, secreted pheromone, three biological and three technical replicates",8.8%
same,diploid frequency (%),[18]; co-culture replicate 1,1.34%
same,average (diploid colonies),[18]; co-culture replicate 1,5.67
same,diploid frequency (%),[18]; co-culture replicate 2,1.11%
same,average (diploid colonies),[18]; co-culture replicate 2,4.67
same,diploid frequency (%),[18]; co-culture replicate 3,0.95%
same,average (diploid colonies),[18]; co-culture replicate 3,4
